# Data reported in publication PMC2709242 (Molecular cell, 2009).
# Assays:
# [1] = test system: K63-linked diUb (K63-Ub2); assay: Fluorescence anisotropy binding to K63-linked diUb
# [2] = test system: K63-Ub4; assay: Fluorescence anisotropy binding to K63-linked tetraUb; details: ratio of Kd values, solution-state measurements
Molecule,"linkage selectivity for diUb (K63-Ub2 vs K48-Ub2), in words [1]","K63-Ub2 binding affinity, in words ([1]; compared with other tUIM peptides)",preference for K63-Ub4 over K48-Ub4 [2] [fold]
REVNSQEREVNSQE: Rap80 tUIM peptide with linker between UIMs extended to 14 residues,very little selectivity,substantially more weakly,–
"Rap80 (residues 1 - 233): soluble fragment of Rap80 longer than the minimal tUIMs (protein, UniProt Q96RL1 1-233, looked up, fragment) MPRRKKKVKEVSESRNLEKKDVETTSSVSVKRKRRLEDAFIVISDSDGEEPKEENGLQKTKTKQSNRAKCLAKRKIAQMTEEEQFALALKMSEQEAREVNSQEEEEEELLRKAIAESLNSCRPSDASATRSRPLATGPSSQSHQEKTTDSGLTEGIWQLVPPSLFKGSHISQGNEAEEREEPWDHTEKTEEEPVSGSSGSWDQSSQPVFENVNVKSFDRCTGHSAEHTQCGKP",–,–,7
